Data published in patent publication US8158596B2, “Materials and methods for FOXP3 tumor suppression” (The Regents of the University of Michigan, priority 2007, dated 2012).

What was measured:
MYC = experiment: FOXP3 silencing in HPEC: MYC transcript; type: cell-based, human; conditions: one week after infection
Experimental: (§1) To determine whether the endogenous FOXP3 in prostate epithelial cell lines is responsible for MYC repression, the FOXP3 locus was silenced with a lentiviral vector encoding shRNA for FOXP3. Human Prostate Epithelial Cells (HPEC) were purchased from Lonza Group Ltd (Switzerland) and were cultured with medium. An early passage of the HPEC were infected with lentivirus expressing either control shRNA or FOXP3 shRNA vector as described in Zuo et al., 2007, supra. Uninfected cells were removed by drug selection. At one week after infection, the levels of FOXP3 or MYC mRNA were quantitated by RT-PCR. Western blotting was also carried out using anti-FOXP3 or -MYC antibodies. Beta actin was used as a loading control.

FOXP3 [1] = experiment: FOXP3 silencing in HPEC: FOXP3 mRNA; type: cell-based, human; conditions: one week after infection
Experimental: as §1

FOXP3-encoding mRNA = experiment: Induction of FOXP3-encoding mRNA in cancer cell lines (RT-PCR); type: cell-based; conditions: thymoma BW5147, thymic epithelial cell 61.7, breast cancer TSA, treated 14 hr to 2 days
Experimental: A method was developed to induce FOXP3 expression in cancer cells by activating JNK, P38 and ATF2. Briefly, breast cancer and thymoma cell lines were treated with activators of JNK, P38 and ATF2, such a emetine and anisomycin for 14 hr to 2 days. The cells were analyzed for expression of FOXP3-encoding mRNA by RT-PCR.

FoxP3 [2] = experiment: Anisomycin-induced FoxP3 induction in 4T1 cells with kinase inhibitors; type: cell-based, mouse; conditions: inhibitor 2 μg/ml with anisomycin 1 μg/ml
JNK = experiment: Western blot of phospho-JNK1/2 in 4T1 cells; type: cell-based, mouse; conditions: for activation of JNK: anisomycin 1 μg/ml, PMA 0.5 μg/ml
Experimental: (§2) To identify the mechanism by which anisomycin induced FoxP3, the activation of ATF2, p38, and JNK upon treatment with either anisomycin or PMA was compared. 4T1 cells were treated with either vehicle control, anisomycin (1 μg/ml) or PMA (0.5 μg/ml). Western blots of the cell lysates were obtained using antibodies specific for phospho-ATF2, phospho-p38, ATF2, phospho-JNK1/2, phospho-c-Jun. Levels of beta-actin were used as loading controls.
(§3) Cells of a mammary tumor cell line were treated with anisomycin in conjunction with inhibitors of overlapping specificity. Specifically, 4T1 cells were treated with vehicle control, anisomycin (1 μg/ml) or PMA (0.5 μg/ml) in the presence or absence of inhibitors (2 μg/ml): SP10096 (SP), SB203580 (SB), and PD9786 (PD). Western blots of the cell lysates were obtained using antibodies specific for phosphor-ATF2, phospho-p38, ATF2, phospho-JNK1/2, phospho-c-Jun. Levels of beta-actin were used as loading controls.

ATF2 = experiment: Western blot of phospho-ATF2 in 4T1 cells; type: cell-based, mouse; conditions: for activation of ATF2: anisomycin 1 μg/ml, PMA 0.5 μg/ml
Experimental: as §2, §3
(§4) In order to study the mechanism of ATF2/c-Jun-mediated induction of FoxP3, chromatin immunoprecipitation (ChIP) was carried out as described in (Im et al., Nat Med 5: 412-417 (1999)) to identify an anisomycin-inducible binding site of the FoxP3 locus. Briefly, 4TI cells were treated with vehicle or anisomycin for 2 hours. The cells were sonicated and the chromatin was fixed with 1% paraformaldehyde. Anti-phospho-c-Jun or anti-phosphor-ATF2 antibodies or control rabbit IgG were used to precipitate chromatin associated with these proteins. The amounts of the specific DNA fragments were quantitated by real-time PCR and normalized against the genomic DNA preparation from the same cells. […] Untreated 4T1 cells barely had detectable amounts of phospho-ATF2 and phospho-c-Jun in the nuclei.

c-Jun = experiment: Western blot of phospho-c-Jun in 4T1 cells; type: cell-based, mouse; conditions: for activation of c-Jun: anisomycin 1 μg/ml, PMA 0.5 μg/ml
Experimental: as §2, §3, §4

p38 = biological target: T1, p38 (Mus musculus, UniProt P47811); type: cell-based; conditions: 4T1 cells; anisomycin 1 μg/ml, PMA 0.5 μg/ml
T1 construct: Western blots of the cell lysates were obtained using antibodies specific for phospho-ATF2, phospho-p38; endogenous in cells; host or cells: 4T1 mouse mammary tumor cells
T1 sequence (P47811 whole entry): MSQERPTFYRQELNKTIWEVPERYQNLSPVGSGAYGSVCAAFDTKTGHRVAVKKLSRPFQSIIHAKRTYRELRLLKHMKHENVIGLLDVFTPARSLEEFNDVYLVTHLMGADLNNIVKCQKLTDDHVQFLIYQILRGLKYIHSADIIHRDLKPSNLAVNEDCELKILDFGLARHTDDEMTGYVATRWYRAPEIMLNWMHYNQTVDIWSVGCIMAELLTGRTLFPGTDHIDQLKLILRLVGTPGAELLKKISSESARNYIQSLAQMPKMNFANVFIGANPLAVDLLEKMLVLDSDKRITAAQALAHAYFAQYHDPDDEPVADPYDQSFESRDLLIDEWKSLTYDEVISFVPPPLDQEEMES
Experimental: 4T1 cells were treated with either vehicle control, anisomycin (1 μg/ml) or PMA (0.5 μg/ml). Western blots of the cell lysates were obtained using antibodies specific for phospho-ATF2, phospho-p38, ATF2, phospho-JNK1/2, phospho-c-Jun. Levels of beta-actin were used as loading controls.
Cells of a mammary tumor cell line were treated with anisomycin in conjunction with inhibitors of overlapping specificity. […] Western blots of the cell lysates were obtained using antibodies specific for phosphor-ATF2, phospho-p38, ATF2, phospho-JNK1/2, phospho-c-Jun. Levels of beta-actin were used as loading controls.

FOXP3 gene = FOXP3 gene induction in prostate cancer cell lines by methyltransferase inhibitor; type: cell-based, human; conditions: prostate cancer cell lines PC3 and Du145
Experimental: Using a quantitative pyrosequencing method for FOXP3 analysis, the level of methylation in both the intronic CpG motif and the CpG island was quantitated in the promoter region of FOXP3, using DNA from 17 cases of micro-dissected normal and cancerous tissues. […] Morover, the increase in methylation strongly correlate with reduction of FOXP3 expression. To verify the significance of DNA methylation, prostate cancer cell lines PC3 and Du145 were treated with a methyltransferase inhibitor (5-aza-2′-deoxycytidine (5-AZA)).

[3] = system: breast cancer cell lines MCF-7, BT474, TSA; experiment: Killing of breast cancer cell lines / MTT viability assay; type: cell-based, human, mouse
Experimental: Given the impact of FOXP3 activity on tumor growth and cell death, these compounds were also tested for their ability to kill cancer cells. […] The IC50 ranges between 30-100 ng/ml.
To determine whether anisomycin treatment causes apoptosis of breast cancer cells, the cytotoxic effect of anisomycin on several of breast cancer cell lines was measured by MTT assay. 10^4 cells/well of mouse cell line (TSA) or human breast cancer cell lines (TB474 or MCF7) were cultured in the presence of 25, 50, 100, 200, 400, or 800 ng/ml anisomycin for 48 hours. The amounts of viable cells were determined by MTT assay, with viability of the untreated cells defined as 100%. Both mouse (TSA) and human breast cancer cell lines (BT474, MCF-7) were highly susceptible to anisomycin, with an IC50 between 50-100 […].

[4] = system: P10 probe (AP1 site of FoxP3 enhancer); experiment: Electrophoretic mobility shift of P10 AP1 probe with 4T1 nuclear extracts; type: cell-based, mouse; conditions: nuclear extracts of anisomycin-treated 4T1 cells
From the text: Sequencing comparison identified a typical AP1 site within the P10. […] The sequence of nonmutated probe (P10) is […] (bold letters for core AP1 sequence; SEQ ID NO: 173), that for P10-Mt1 is […] (bold letter indicate mutations; SEQ ID NO: 174), while that for P10-Mt2 is […] (SEQ ID NO: 175).

TSA cells = experiment: Apoptosis: activated caspase 3 staining and DNA content; type: cell-based, mouse
From the text: Cells were stained for activated Capsase 3 and also tested for DNA contents. The % of gated cells was apoptotic based on their sub-2C DNA contents.

TSA tumor cells = experiment: TSA tumor in mammary fat pads of BALb/c mice; type: in vivo; conditions: intraperitoneal, every 3 days for 8 times, I mg/mouse
Experimental: To test whether induction of FoxP3 by ATF2-FoxP3 pathway can be explored for breast cancer therapy, cells (5×10^5) of the TSA cell line were injected into the mammary fat pads of BALb/c mice. Five days later, when the cancer cells established locally, the mice were intraperitoneally treated with vehicle control or anisomycin every 3 days for 8 times at a dose of I mg/mouse.

[5] = system: FoxP3 locus P2 and P10 sites; experiment: ChIP of phospho-ATF2/phospho-c-Jun binding at the FoxP3 locus in 4T1 cells; type: cell-based, mouse
Experimental: as §4
In order to identify the FoxP3 sequence associated with p-ATF2 and p-c-Jun, the 5′ sequence of the FoxP3 gene was analyzed and 14 potential AP1 and CREB sites were identified. […]

FOXP3 transcripts = FOXP3 transcripts in primary mammary epithelial cultures of ATF2+/+ and ATF2-/- mice; type: cell-based, mouse
Experimental: ATF2± mice were obtained from the frozen embryo bank of the Jackson Laboratories and were crossed to produce ATF2+/+ and the ATF2−/− mice. […] Two independent primary cultures were obtained from two ATF2−/− females. Specifically, mouse mammary fat pads were removed from 6 to 8-week-old virgin female mice and minced into small pieces. After collagenase digestion at 37° C. in a shaking incubator in DMEM medium supplemented with 5% fetal calf serum (FBS), cells were sieved through a 70-μm cell strainer (BD Falcon) to obtain a single cell suspension. The cells were cultured in DMEM medium supplemented with 10% FBS and 10 ng/ml epithelial growth factor (EGF). At day 3 of culture, fibroblast cells were removed by a short digestion with 0.05% trypsin-EDTA as less adherent cells.
The primary cultures were then assayed for expressioin of FOXP3 protein by Western blotting cell lysates of the cultures with antibodies specific for FOXP3. The primary transcripts also were assayed for expression of FOXP3 by real-time PCR.

[6] = inhibitor 2 μg/ml with anisomycin 1 μg/ml

## FoxP3 shRNA: lentiviral shRNA specific for FoxP3 used in mouse TSA cells (SEQ ID NO: 168) (AAGCCATGGCAATAGTTCCTT)
MYC
  level of MYC transcript: significantly elevated
FOXP3 [1]
  expression of FOXP3 mRNA: major reduction

## CC[C@H]1CN2CCc3cc(OC)c(OC)cc3[C@@H]2C[C@@H]1C[C@H]1NCCc2cc(OC)c(OC)cc21 [emetine]
FOXP3-encoding mRNA
  induction of FOXP3-encoding mRNA: strong induction

## C[S+]([O-])c1ccc(-c2nc(-c3ccncc3)c(-c3ccc(F)cc3)[nH]2)cc1 (stereo not shown) [SB]
FoxP3 [2]
  inhibition of anisomycin-induced FoxP3 induction: reduced, but did not eliminate
JNK; [6]
  inhibition of JNK activation by anisomycin: only partially
ATF2; [6]
  inhibition of ATF2 activation by anisomycin: only partially

## CCCCCCCCCCCCCC(=O)O[C@@H]1[C@@H](C)[C@@]2(O)[C@@H](C=C(CO)C[C@]3(O)C(=O)C(C)=C[C@@H]23)[C@@H]2C(C)(C)[C@]12OC(C)=O [PMA]
JNK
  activation of JNK: failed to activate
c-Jun
  activation of c-Jun: failed to activate
ATF2
  activation of ATF2: activated
p38
  activation of p38: activated

## Nc1ncn([C@H]2C[C@H](O)[C@@H](CO)O2)c(=O)n1 [5-AZA, 5-aza-2′-deoxycytidine]
FOXP3 gene
  induction of the FOXP3 gene: two-fold

## COc1ccc(C[C@H]2NC[C@H](O)[C@H]2OC(C)=O)cc1 [anisomycin]
[3]; 48 hours
  IC50 (cancer cell killing): 0.03 to 0.1 µg/mL
[3]; within 48 hours
  killing of cancer cells: killed a substantial percentage of cancer cells
[4]
  binding of nuclear extracts to nonmutated P10 probe (EMSA): strong interaction
TSA cells
  active caspase 3 in cells with less than 2C DNA contents: increased expression of active caspase 3
TSA tumor cells
  side effects: did not give obvious side effects
TSA tumor cells; from day 5
  growth of TSA tumor cells in syngeneic mammary pad: nearly completely abrogated
JNK
  activation of JNK: activation
[5]; P2, 4.8 kb 5′ of exon 1
  inducibility of ATF2/cJun association with P2 site (ChIP): not inducible
[5]; P10, 4.2 kb 3′ of exon 1
  enhancement of ATF2/cJun binding to P10 site (ChIP): more than 2 fold
FOXP3 transcripts; ATF2+/+ primary mammary epithelial cells
  FOXP3 transcripts in ATF2+/+ epithelial cultures: further induced
FOXP3 transcripts; ATF2-/- primary mammary epithelial cells
  FoxP3 transcripts in ATF2-/- cells: completely refractory
c-Jun
  activation of c-Jun: activation
c-Jun; anisomycin 2 hours
  phospho-c-Jun in the nuclear fraction: major increase
FOXP3-encoding mRNA
  induction of FOXP3-encoding mRNA: strong induction
ATF2
  activation of ATF2: activated
ATF2; anisomycin 2 hours
  phospho-ATF2 in the nuclear fraction: major increase
p38
  activation of p38: activated
